Measurements taken from paper PMC4650734, “FV-162 is a novel, orally bioavailable, irreversible proteasome inhibitor with improved pharmacokinetics displaying preclinical efficacy with continuous daily dosing” (Cell Death & Disease, 2015).

What was measured:
CT-L proteasome subunit = experiment: CT-L proteasome activity in whole cell lysates of human myeloma cell lines (Suc-Leu-Leu-Val-Tyr-AMC); format: biochemical
Procedure: Cells were harvested by centrifugation at 1200 r.p.m. at room temperature. Cell pellets were washed with PBS and lysed with assay lysis buffer (50 mM HEPES (2-[4-(2-hydroxyethyl) piperazin-1-yl]ethanesulfonic acid)), pH 7.5; 150 mM NaCl; 1% Triton X-100; 2 mM ATP). Cell lysates were incubated on ice for 30 min, mixed by vortex every 5 min, and centrifuged at 12 000 × g for 10 min. Supernatants were transferred to a 96-well plate in triplicate. For each assay, 10 μg of total protein were incubated for 1 h at 37 °C with increasing concentrations (0.001–10 μM) of test compound or vehicle control diluted in assay buffer (50 mM Tris-HCl (tris(hydroxymethyl)aminomethane-HCl), pH 7.5; 150 mM NaCl). After incubation, a specific fluorogenic proteasome substrate was added to each assay reaction (40 μM in a total volume of 100 μl). […] The excitation wavelength was 360 nm and the fluorescence emission of free AMC released during the enzymatic reaction was detected at 460 nm on a SpectraMax M5 fluorescent spectrophotometric plate reader (Molecular Devices, Sunnyvale, CA, USA). AMC release rate was measured at 37 °C in a kinetic mode, recording every 5 min for 30 min.

[1] = system: 10 human myeloma cell lines; experiment: MTS cell growth and viability assay; format: cell-based; conditions: 72 h
Procedure: (§1) Human multiple myeloma cell lines 8226, H929, JJN3, KMH11, KMS11, KMS18, LP1, MM.1 S, OPM2, and U266 were grown in Iscove's modified Dulbecco's medium (IMDM). Cell lines were authenticated with short tandem repeat method in September 2011. In addition, cell lines were continually monitored by morphological inspection. Primary mononuclear cells were isolated from peripheral blood or bone marrow samples from multiple myeloma patients at the Princess Margaret Cancer Centre (Toronto, ON, Canada) by Ficoll density gradient centrifugation and cultured in IMDM. All cell culture media were obtained from the Ontario Cancer Institute Tissue Culture Media Facility (Toronto, ON, Canada) and were supplemented with 10% fetal calf serum, 100 μg/ml penicillin, and 100 μg/ml streptomycin (Hyclone, Logan, UT, USA). […]
(§2) Cellular viability was primarily assessed by MTS assay according to the manufacturer's instructions (Promega, Madison, WI, USA). […] Cell viability was independently confirmed by reading the optical density at 490 nm and by exclusion of trypan blue stain (Invitrogen, Burlington, ON, Canada). Viability of primary mononuclear cells was determined by Annexin V–fluorescein isothiocyanate and propidium iodide co-staining (Biovision Research Products, Mountain View, CA, USA) using flow cytometry according to the manufacturer's instructions after 48 h of treatment with inhibitors or vehicle control.

[2] = system: primary CD138+ myeloma cells; experiment: Annexin V flow cytometry viability of primary bone marrow mononuclear cells, myeloma fraction; format: cell-based, human
Procedure: as §1, §2

[3] = Pharmacokinetic study in NOD/SCID mice; format: in vivo; conditions: plasma, mouse; for bioavailability: 25 mg/kg p.o. vs 5 mg/kg i.v.
Procedure: NOD/SCID mice were administered FV-162 or ONX-0912 at doses of 5 mg/kg intravenously or 25 mg/kg by oral gavage in a 12.5% ethanol, 12.5% Tween-80 vehicle (3 mice per group). Venous blood samples (20–50 μl) were collected at 5, 15, 30 min, and 1, 2, and 4 h postdose. Plasma was separated from whole blood by centrifugation and stored at −20 °C until analysis. […] Venous blood samples (20–50 μl) were collected at 5, 10, 30, and 60 min postdose. Plasma was separated from whole blood by centrifugation and stored at −20 °C until analysis. The Cmax, its associated time (Tmax), the terminal half-life (t1/2), area under the plasma concentration–time curve (AUC), clearance (CL), and volume of distribution (Vd) were evaluated using Pheonix WinNonlin 6.2.1 (Princeton, NJ, USA), and relative oral bioavailability (F%) values were calculated as follows: F%=AUCoral gavage/AUCintravenous × 100.

[4] = Pharmacokinetic study in Sprague-Dawley rats; format: in vivo; conditions: rat; for bioavailability: 40 mg/kg p.o. vs 5 mg/kg i.v.
NOD/SCID mice = experiment: Dose tolerance studies / MTD in mice; conditions: 30 mg/kg daily by oral gavage, up to 8 days, NOD/SCID mice
Procedure: NOD/SCID mice were administered FV-162 (30 mg/kg daily, 7 days/week) in a 5% DMSO, 20% Cremophor vehicle by oral gavage or ONX-0912 (30 mg/kg daily, 7 days/week) in a 5% DMSO, 20% Cremophor vehicle by oral gavage for a week. Mice were monitored for changes in body weight, behavior, and physical appearance.

C-L subunit activity = experiment: C-L proteasome activity in RBCs of treated mice; format: in vivo, mouse; conditions: FV-162 30 mg/ml as printed in Figure 5e legend
T-L subunit activity = experiment: T-L proteasome activity in RBCs of treated mice; format: in vivo, mouse; conditions: FV-162 30 mg/ml as printed in Figure 5e legend
patients = conditions: cited from earlier work
[5] = male, Sprague-Dawley, plasma, iv, 5 mg/kg i.v.
[6] = male, Sprague-Dawley, plasma, iv, 5 mg/kg i.v., read-out: AUC (converted)
[7] = male, Sprague-Dawley, plasma, iv, 5 mg/kg i.v., read-out: Cmax
[8] = male, Sprague-Dawley, plasma, po, 40 mg/kg p.o.
[9] = male, Sprague-Dawley, plasma, po
[10] = male, Sprague-Dawley, plasma, 40 mg/kg oral, read-out: AUC (as printed in text) (converted)
[11] = male, Sprague-Dawley, plasma, 40 mg/kg oral, read-out: Cmax (as printed in text)

Compound | AUC ([3]; iv, 5 mg/kg i.v.) [ng·h/mL] | Cmax ([3]; iv, 5 mg/kg i.v.) [ng/mL] | Tmax ([3]; iv, 5 mg/kg i.v.) [min] | Vd ([3]; iv, 5 mg/kg i.v.) [L/kg] | clearance ([3]; iv, 5 mg/kg i.v.) [mL/min/kg] | half-life ([3]; iv, 5 mg/kg i.v.) [min] | AUC ([3]; po, 25 mg/kg p.o.) [ng·h/mL] | Cmax ([3]; po, 25 mg/kg p.o.) [ng/mL] | Tmax ([3]; po, 25 mg/kg p.o.) [min] | bioavailability ([3]; po) [%] | Tmax [4, 5] [min] | Vd [4, 5] [L/kg] | half-life [4, 5] [min] | AUC [4, 6] [ng·h/mL] | Cmax [4, 7] [ng/mL] | Tmax [4, 8] [min] | bioavailability [4, 9] [%] | AUC [4, 10] [ng·h/mL] | Cmax [4, 11] [ng/mL] | AUC ([4]; 40 mg/kg p.o.) | further results
Cc1ncc(C(=O)N[C@@H](COC(F)F)C(=O)N[C@@H](COC(F)F)C(=O)N[C@@H](Cc2ccccc2)C(=O)[C@@]2(C)CO2)s1 [FV-162] | 111 | 268 | 5 | 96 | 702 | 95 | 51.9 | 21 | 60 | 10 | 5 | 20 | 68 | 403 | 392 | 15 | 14 | 451 | 615 | 27 073 min × ng/ml | potency in CT-L inhibition relative to ONX-0912 (CT-L proteasome subunit; in 6 of the 10 cell lines): over five times more potent than ONX-0912; IC50 (CT-L proteasome subunit; total cell lysates, all 10 human myeloma cell lines tested): < 60 nM; cell growth and viability (MTS) ([1]; all 10 human myeloma cell lines): decreased cell growth and viability; potency in MTS assay relative to ONX-0912 ([1]; in 5 of the 10 cell lines): over two times more potent than ONX-0912; primary myeloma cells killed ([2]; concentrations ⩽0.1 μM, 48 h, n=8 patients): At least 80%; toxicity, behavior and body weight on daily dosing (NOD/SCID mice): no evidence of toxicity, behavioral change, or loss of body weight; inhibition of C-L subunit activity in murine RBCs (C-L subunit activity): did not inhibit; inhibition of T-L subunit activity in murine RBCs (T-L subunit activity): did not inhibit
COC[C@H](NC(=O)c1cnc(C)s1)C(=O)N[C@@H](COC)C(=O)N[C@@H](Cc1ccccc1)C(=O)[C@@]1(C)CO1 [ONX-0912, reference compound] | 54.1 | 187 | 5 | 48 | 1490 | 22 | 8.55 | 38 | 5 | 3 | 5 | 4 | 10 | 301 | 1090 | 5 | 16 | 377 | 1270 | 22 627 min × ng/ml | induction of death in primary myeloma cells ([2]; similar concentrations as FV-162, 48 h): less effective at inducing death in primary myeloma cells; clearance [4, 5]: 273 mL/min/kg; MTD (not reached at cumulative doses up to) (patients; administered twice daily): > 190 mg/day; MTD (patients; once-daily oral, patients with advanced refractory or recurrent solid tumors): 150 mg/day
